This passage reports IC50 results from US20170166555A1, “FUNCTIONALISED AND SUBSTITUTED INDOLES AS ANTI-CANCER AGENTS” (Novogen Limited, priority 2013, published 2017).

Experiment in all cases: Anti-proliferative assay, cell-titre luminescent reagent, 72 h (GVK-BIO)
Common to all, as to assay type: cell-based

Assay [1] has as its system PC3 prostate cancer cells. The method, boiled down: (§1)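 Luminescence, read 30 min after reagent addition, was normalized to untreated or vehicle-only wells. Dosing followed a 24 h attachment period at 37 °C in 5% CO2. Values are either IC50s from linear regression (4 concentrations, 30 to 0.03 μM) or EC50s from nonlinear variable-slope fits (6 concentrations, 30 to 0.1 μM).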

The test system of a further assay is SK-Mel-28 melanoma cells. As to conditions: Homo sapiens. The method, boiled down: as §1
Assay [2] relates to MDA-MB-231 triple negative breast cancer cells. As to conditions: Homo sapiens. The method, boiled down: as §1
For assay [3], the system named is SK-N-SH neuroblastoma cells. As to conditions: Homo sapiens. In a few lines: as §1
In assay [4] the test system is A549 non-small cell lung carcinoma cells. As to conditions: Homo sapiens, read-out: IC50/μM Lung (NSLC) A549. The method, boiled down: as §1
The subject of assay [5] is DU145 prostate cancer cells. As to conditions: Homo sapiens. The method, boiled down: as §1
The subject of assay [6] is CaCo2 colorectal cancer cells. As to conditions: Homo sapiens. In a few lines: as §1
Where [7] appears, read: 30, 10, 3, 1, 0.3 and 0.1 μM, nonlinear regression (Table 5).
[8] abbreviates: SK-MEL-28, 72 h, 30, 10, 3, 1, 0.3 and 0.1 μM, nonlinear regression (Table 5).
[9] abbreviates: MDA-MB-231, 72 h, 30, 10, 3, 1, 0.3 and 0.1 μM, nonlinear regression (Table 5).
Where [10] appears, read: SK-N-SH, 30, 10, 3, 1, 0.3 and 0.1 μM, nonlinear regression (Table 5).
[11] abbreviates: A549, 72 h, 30, 10, 3, 1, 0.3 and 0.1 μM, nonlinear regression (Table 5).
Where [12] appears, read: DU-145, 72 h, 30, 10, 3, 1, 0.3 and 0.1 μM, nonlinear regression (Table 5).
Setting [13] is: Caco-2, 72 h, 30, 10, 3, 1, 0.3 and 0.1 μM, nonlinear regression (Table 5).
The mark [14] stands for this setting: 30, 3, 0.3 and 0.03 μM, linear regression (Tables 2-4).
Where [15] appears, read: SK-MEL-28, 72 h, 30, 3, 0.3 and 0.03 μM, linear regression (Tables 2-4).
Setting [16] is: MDA-MB-231, 72 h, 30, 3, 0.3 and 0.03 μM, linear regression (Tables 2-4).
Where [17] appears, read: SK-N-SH, 30, 3, 0.3 and 0.03 μM, linear regression (Tables 2-4).
[18] abbreviates: A549, 72 h, 30, 3, 0.3 and 0.03 μM, linear regression (Tables 2-4).
The mark [19] stands for this setting: DU-145, 72 h, 30, 3, 0.3 and 0.03 μM, linear regression (Tables 2-4).
Setting [20] is: Caco-2, 72 h, 30, 3, 0.3 and 0.03 μM, linear regression (Tables 2-4).

Read-outs that look alike come from different tables or passages of the source. Where only a bound is given, the exact number is not on record here.

Consider `Cc1c(C)n(CCCN(C)C)c2ccc(CN3CCN(CCc4ccc(F)cc4)CC3)cc12` [Compound 4109, 3-(5-((4-(4-fluorophenethyl)piperazin-1-yl)methyl)-2,3-dimethyl-1H-indol-1-yl)-N,N-dimethylpropan-1-amine], for which the IC50 in assay [1] (setting [7]) stood at 9.5 µM; in the assay on SK-Mel-28 melanoma cells (setting [8]), 1 µM; in assay [2] (setting [9]), 3.6 µM; in assay [3] (setting [10]) it was 3.7 µM; in assay [4] (setting [11]), 6.5 µM; in assay [5] (setting [12]), 5.3 µM. In addition, the IC50 in assay [6] (setting [13]) was found to be 9.1 µM.
Regarding `Cc1c(C)n(CCCN2CCN(C)CC2)c2ccc(CN3CCN(CCc4ccc(F)cc4)CC3)cc12` [Compound 4110, 5-((4-(4-fluorophenethyl)piperazin-1-yl)methyl)-2,3-dimethyl-1-(3-(4-methylpiperazin-1-yl)propyl)-1H-indole], the IC50 was 17.7 µM in assay [1] (setting [7]); 4.4 µM in the assay on SK-Mel-28 melanoma cells (setting [8]); 6.9 µM in assay [2] (setting [9]); 4.2 µM in assay [3] (setting [10]); 33.2 µM in assay [4] (setting [11]); 22.7 µM in assay [5] (setting [12]). In assay [6] (setting [13]), this compound returned an IC50 of 12.9 µM.
As for `COc1ccc(CCN2CCN(Cc3ccc4c(c3)c(C)c(C)n4CCCN3CCN(C)CC3)CC2)cc1` [Compound 4111, 5-((4-(4-methoxyphenethyl)piperazin-1-yl)methyl)-2,3-dimethyl-1-(3-(4-methylpiperazin-1-yl)propyl)-1H-indole], the IC50 in assay [1] (setting [7]) came to 7.5 µM; in the assay on SK-Mel-28 melanoma cells (setting [8]) it was 2.4 µM; in assay [2] (setting [9]) it was 3.9 µM; in assay [3] (setting [10]) it was 3.4 µM; in assay [4] (setting [11]) it was 5.5 µM; in assay [5] (setting [12]), 11.3 µM. Also, the IC50 in assay [6] (setting [13]) came to 7.9 µM.
`Cc1c(C)n(CCCN2CCN(C)CC2)c2ccc(CN3CCN(CCc4ccc(O)cc4)CC3)cc12` [Compound 4112, 4-(2-(4-((2,3-dimethyl-1-(3-(4-methylpiperazin-1-yl)propyl)-1H-indol-5-yl)methyl)piperazin-1-yl)ethyl)phenol]: the IC50 in assay [1] (setting [7]) is 8.4 µM; with SK-Mel-28 melanoma cells (setting [8]), 13 µM; in assay [2] (setting [9]), 11.8 µM; in assay [3] (setting [10]), 7 µM; in assay [4] (setting [11]), 5.9 µM; in assay [5] (setting [12]) it was 8.3 µM. This compound registered an IC50 in assay [6] (setting [13]) of 17.5 µM.
Turning to `COc1cccc(CCN2CCN(Cc3ccc4c(c3)c(C)c(C)n4CCCN3CCN(C)CC3)CC2)c1` [Compound 4115, 5-((4-(3-methoxyphenethyl)piperazin-1-yl)methyl)-2,3-dimethyl-1-(3-(4-methylpiperazin-1-yl)propyl)-1H-indole], the IC50 in assay [1] (setting [7]) turned out to be 9.4 µM; with SK-Mel-28 melanoma cells (setting [8]) it was 1.1 µM; in assay [2] (setting [9]) it was 3.4 µM; in assay [3] (setting [10]) it was 4.9 µM; in assay [4] (setting [11]), 8.8 µM; in assay [5] (setting [12]) it was 6.1 µM. In addition, in assay [6] (setting [13]), the IC50 amounted to 6.2 µM.
As to `Cc1c(C)n(CCCN2CCN(C)CC2)c2ccc(CN3CCN(CCc4cccc(O)c4)CC3)cc12` [Compound 4116, 3-(2-(4-((2,3-dimethyl-1-(3-(4-methylpiperazin-1-yl)propyl)-1H-indol-5-yl)methyl)piperazin-1-yl)ethyl)phenol], the IC50 in assay [1] (setting [7]) came to 13.2 µM; in the assay on SK-Mel-28 melanoma cells (setting [8]), 3.2 µM; in assay [2] (setting [9]), 4.1 µM; in assay [3] (setting [10]), 4.6 µM; in assay [4] (setting [11]) it was 10.1 µM; in assay [5] (setting [12]), 7.6 µM. Besides, in assay [6] (setting [13]), the IC50 turned out to be 6 µM.
For the compound `Cc1c(C)n(CCCN2CCN(C)CC2)c2ccc(CN3CCN(CCc4ccccc4)CC3)cc12` [Compound 4117, 2,3-dimethyl-1-(3-(4-methylpiperazin-1-yl)propyl)-5-((4-phenethylpiperazin-1-yl)methyl)-1H-indole], the IC50 turned out to be 10.2 µM in assay [1] (setting [7]); 2 µM in the assay on SK-Mel-28 melanoma cells (setting [8]); 3.5 µM in assay [2] (setting [9]); 4.6 µM in assay [3] (setting [10]); 8.6 µM in assay [4] (setting [11]); 5.6 µM in assay [5] (setting [12]). The IC50 in assay [6] (setting [13]) came to 8.2 µM.
For the compound `Cc1c(C)n(CCCN(C)C)c2ccc(C(=O)N3CCN(CCc4ccc(F)cc4)CC3)cc12` [Compound 4118, (1-(3-(dimethylamino)propyl)-2,3-dimethyl-1H-indol-5-yl)(4-(4-fluorophenethyl)piperazin-1-yl)methanone], the IC50 is more than 30 µM in assay [1] (setting [14]); 18.1 µM in the assay with SK-Mel-28 melanoma cells (setting [15]); more than 30 µM in assay [2] (setting [16]); 31.9 µM in assay [3] (setting [17]); more than 30 µM in assay [4] (setting [18]); more than 30 µM in assay [5] (setting [19]). The IC50 in assay [6] (setting [20]) was more than 30 µM.
Take `Cc1c(C)n(CCCN(C)C)c2ccc(C(=O)N3CCN(CCc4ccc(O)cc4)CC3)cc12` [Compound 4119, (1-(3-(dimethylamino)propyl)-2,3-dimethyl-1H-indol-5-yl)(4-(4-hydroxyphenethyl)piperazin-1-yl)methanone]: the IC50 (in assay [1] (setting [7]); in the assay with SK-Mel-28 melanoma cells (setting [8]); in assay [2] (setting [9]); in assay [3] (setting [10]); in assay [4] (setting [11]); in assay [5] (setting [12])) was more than 30 µM throughout. In assay [6] (setting [13]), this compound came in with an IC50 of more than 30 µM.
Take `Cc1c(C)n(CCCN2CCN(C)CC2)c2ccc(C(=O)N3CCN(CCc4ccc(F)cc4)CC3)cc12` [Compound 4120, (2,3-dimethyl-1-(3-(4-methylpiperazin-1-yl)propyl)-1H-indol-5-yl)(4-(4-fluorophenethyl)piperazin-1-yl)methanone]: the IC50 in assay [1] (setting [14]) is more than 30 µM; in the assay on SK-Mel-28 melanoma cells (setting [15]), 17.7 µM; in assay [2] (setting [16]), more than 30 µM; in assay [3] (setting [17]), 13.8 µM; in assay [4] (setting [18]), 23 µM; in assay [5] (setting [19]), more than 30 µM. This compound gave an IC50 in assay [6] (setting [20]) of more than 30 µM.
As for `COc1ccc(CCN2CCN(C(=O)c3ccc4c(c3)c(C)c(C)n4CCCN3CCN(C)CC3)CC2)cc1` [Compound 4121, (2,3-dimethyl-1-(3-(4-methylpiperazin-1-yl)propyl)-1H-indol-5-yl)(4-(4-methoxyphenethyl)piperazin-1-yl)methanone], the IC50 is more than 30 µM in assay [1] (setting [14]); 14.7 µM in the assay with SK-Mel-28 melanoma cells (setting [15]); 13.2 µM in assay [2] (setting [16]); 13.6 µM in assay [3] (setting [17]); 15.7 µM in assay [4] (setting [18]); more than 30 µM in assay [5] (setting [19]). In assay [6] (setting [20]), this compound showed an IC50 of more than 30 µM.
Consider `Cc1c(C)n(CCCN2CCN(C)CC2)c2ccc(C(=O)N3CCN(CCc4ccc(O)cc4)CC3)cc12` [Compound 4122, (2,3-dimethyl-1-(3-(4-methylpiperazin-1-yl)propyl)-1H-indol-5-yl)(4-(4-hydroxyphenethyl)piperazin-1-yl)methanone], for which the IC50 (in assay [1] (setting [7]); in the assay on SK-Mel-28 melanoma cells (setting [8]); in assay [2] (setting [9]); in assay [3] (setting [10]); in assay [4] (setting [11]); in assay [5] (setting [12])) was more than 30 µM throughout. Moreover, the IC50 in assay [6] (setting [13]) is more than 30 µM.
For the compound `Cc1c(C)n(CCCN2CCN(C)CC2)c2ccc(C(=O)N3CCN(CCc4ccc5c(c4)OCO5)CC3)cc12` [Compound 4123, (4-(2-(benzo[d][1,3]dioxol-5-yl)ethyl)piperazin-1-yl)(2,3-dimethyl-1-(3-(4-methylpiperazin-1-yl)propyl)-1H-indol-5-yl)methanone], the IC50 in assay [1] (setting [14]) is more than 30 µM; with SK-Mel-28 melanoma cells (setting [15]) it was 16.8 µM; in assay [2] (setting [16]) it was 16.3 µM; in assay [3] (setting [17]), 12.3 µM; in assay [4] (setting [18]), 15.6 µM; in assay [5] (setting [19]), more than 30 µM. Further, the IC50 in assay [6] (setting [20]) was more than 30 µM.
In the case of `Cc1c(C)n(CCCN2CCN(C)CC2)c2ccc(C(=O)N3CCN(CCc4cccc(F)c4)CC3)cc12` [Compound 4124, (2,3-dimethyl-1-(3-(4-methyl piperazin-1-yl)propyl)-1H-indol-5-yl)(4-(3-fluorophenethyl)piperazin-1-yl)methanone], the IC50 in assay [1] (setting [14]) was 21.8 µM; in the assay on SK-Mel-28 melanoma cells (setting [15]), 15.9 µM; in assay [2] (setting [16]), 13.9 µM; in assay [3] (setting [17]), 10.9 µM; in assay [4] (setting [18]), 15 µM; in assay [5] (setting [19]) it was more than 30 µM. This compound also showed an IC50 in assay [6] (setting [20]) of 29.6 µM.
With `COc1cccc(CCN2CCN(C(=O)c3ccc4c(c3)c(C)c(C)n4CCCN3CCN(C)CC3)CC2)c1` [Compound 4125, (2,3-dimethyl-1-(3-(4-methylpiperazin-1-yl)propyl)-1H-indol-5-yl)(4-(3-methoxyphenethyl)piperazin-1-yl)methanone], the IC50 was more than 30 µM in assay [1] (setting [14]); 25 µM in the assay on SK-Mel-28 melanoma cells (setting [15]); 33.2 µM in assay [2] (setting [16]); 14.9 µM in assay [3] (setting [17]); 19.4 µM in assay [4] (setting [18]); more than 30 µM in assay [5] (setting [19]). Further, in assay [6] (setting [20]), the IC50 is more than 30 µM.
